# Reference: paper PMC11220827 (Frontiers in Pharmacology, 2024)
# Where two headings read alike, the source gives them in different places.
# Columns and labels:
# H295R cells [1] = settings: reference: Forskolin (↑), prochloraz (↓)
# Procedure: (§1) DMSO (1% compound stock in incubation mixture).
# was measured on a Berthold luminometer.
# (§2) Serial dilutions of the compounds were incubated in Tris -buffer (pH 8.0) overnight at 4°C in the
# (§3) incubation mixture). After incubation, TTR-bound and free T4 were separated on a Bio-Gel P-6DG
# (§4) column. The eluate was added to assay medium after which TRβ CALUX cells were exposed for 24 h
# (§5) For this TRβ CALUX exposure, serum-free assay medium was used.
# (§6) wells plates in assay medium, and exposed for 48h to a serial dilution of the compound in triplicate
# (§7) exposure, the assay medium was analysed on the ERα and AR CALUX bioassays as described
# (§8) Changes in hormone levels compared to a vehicle control exposure
# (§9) Preincubation with rat liver S9 fraction
# (§10) To assess the effect of metabolism on the activity of the test
# (§11) compound for these assays, preincubations with rat liver S9 were performed. Compounds (10 μl
# (§12) DMSO stock solution) were incubated for 0 h (control) or 3 h (test condition) in a total volume of 1
# (§13) ml TRIS buffer in the presence of 1% (v/v) PB/BNF induced rat liver S9 mix (including NADPH and
# (§14) an NADPH-regenerating system). After incubation, the reaction was stopped by the addition of ice
# (§15) cold acetone, and samples were frozen to stimulate protein precipitation. After thawing, the
# (§16) precipitated protein fraction was subsequently removed by centrifugation. The supernatant, cont aining
# (§17) the metabolites and any remaining non-metabolised parent compound, was concentrated under a
# (§18) gentle nitrogen flow. After evaporating to dryness, the sample was taken up in 50 μl DMSO followed
# (§19) by the addition of 50 μl TRIS buffer. This extract was used for the exposure of the hTPO inhibition,
# (§20) Relative light units (RLUs) of the CALUX assays were analysed as follows. For agonist assays,
# (§21) background values (exposure to DMSO only) were subtracted, and the maximum activity of the
# (§22) assay’s reference compound was set to 100%. For antagonist assays, the basal signal (exposure to fixed concentration of agonist only) was set to 100%. Activity of the samples was scaled accordingly,
# (§23) resulting in expression of the data as “percentage of maximum reference response”. Graphs were
# (§24) generated using the statistical software package GraphPad Prism V5.03. Using these graphs, lowest
# (§25) effect concentrations (LOECs) and PC50 concentrations were determined; LOEC is defined as the
# (§26) maximum reference compound activity for agonist assays, and 20% of the maximum reference
# (§27) compound activity for antagonist assays. The PC50 is defined as the concentration where the activity
# (§28) of the sample equals 50% of the maximum activity of the assay’s reference compound.
# (§29) the test compound was divided by the amount of estrogens and androgens produced by the solvent
# (§30) control-exposed cells. A sample was considered ‘active’ if it decreased the hormone production 0.8-
# H295R cells [2] = settings: reference: Forskolin (↑), prochloraz (↓); remark: listed apart in the source
# Procedure: as §1
# was measured on a Berthold luminometer.
# as §2, §3, §4, §5, §6, §7, §8, §9, §10, §11, §12, §13, §14, §15, §16, §17, §18, §19, §20, §21, §22, §23, §24, §25, §26, §27, §28, §29, §30
# HepG2 cells = assay: cells; type: cell-based
# [3] = HepG2, 24 h, NR = No response observed
compound,measurement,setting,value
"C=C[C@@]1(C)CC(=O)[C@]2(O)[C@@]3(C)[C@@H](O)CCC(C)(C)[C@@H]3[C@H](O)[C@H](OC(C)=O)[C@@]2(C)O1 [Forskolin, reference compound]","Steroidogenesis (ERα) 17β-estradiol LOEC, reference compound",H295R cells [1],−6.0 Log M
same,"Steroidogenesis (AR) Testosterone LOEC, reference compound",H295R cells [2],−6.0 Log M
Tunicamycin [reference compound],ER stress panel 1: BiP: MEC,"HepG2 cells; HepG2, 24 h",< 0.391 µM
same,ER stress panel 1: ER integrity: MEC,"HepG2 cells; HepG2, 24 h",0.453 µM
same,ER stress panel 1: XBP1: MEC,"HepG2 cells; HepG2, 24 h",0.532 µM
same,ER stress panel 2: ATF4: MEC,"HepG2 cells; HepG2, 24 h",< 0.391 µM
same,ER stress panel 2: CHOP: MEC,"HepG2 cells; HepG2, 24 h",0.955 µM
same,ER stress panel 1: BiP: Effect,HepG2 cells; [3],increase
same,ER stress panel 1: ER integrity: Effect,HepG2 cells; [3],increase
same,ER stress panel 1: XBP1: Effect,HepG2 cells; [3],increase
same,ER stress panel 2: ATF4: Effect,HepG2 cells; [3],increase
same,ER stress panel 2: CHOP: Effect,HepG2 cells; [3],increase
same,AC50,"HepG2 cells; HepG2, 24 h, read-out: ER stress panel 1: BiP: AC50",> 1.56 µM
same,AC50,"HepG2 cells; HepG2, 24 h, read-out: ER stress panel 1: ER integrity: AC50",2.22 µM
same,AC50,"HepG2 cells; HepG2, 24 h, read-out: ER stress panel 1: XBP1: AC50",> 3.13 µM
same,AC50,"HepG2 cells; HepG2, 24 h, read-out: ER stress panel 2: ATF4: AC50",27.9 µM
same,AC50,"HepG2 cells; HepG2, 24 h, read-out: ER stress panel 2: CHOP: AC50",> 6.25 µM
"CCCN(CCOc1c(Cl)cc(Cl)cc1Cl)C(=O)n1ccnc1 [prochloraz, reference compound]","Steroidogenesis (ERα) 17β-estradiol LOEC, reference compound",H295R cells [1],−6.0 Log M
same,"Steroidogenesis (AR) Testosterone LOEC, reference compound",H295R cells [2],−6.0 Log M
"OC[C@@H](O)[C@@H](O)[C@H](O)[C@@H](O)CO [Sorbitol, reference compound]",Osmotic & heat shock: hsp70: Effect,HepG2 cells,increase
same,AC50,"HepG2 cells; Homo sapiens, HepG2, 24 h, read-out: Osmotic & heat shock: hsp70: AC50",91700 µM
same,Osmotic & heat shock: hsp70: MEC,"HepG2 cells; human, 24 h",29000 µM
"C[C@H](CCC(=O)O)C[C@H](C)C[C@H](C)C(=O)/C=C(\O)[C@H](C)C[C@H](C)C/C=C/[C@@H](C)[C@@H](O)[C@@H](C)[C@@H](O)C[C@@H]1CC[C@@](C)([C@H]2CC[C@@](C)([C@@H](C)O)O2)O1 [Ionomycin, reference compound]",Apoptosis & necrosis: caspase 3/7: MEC,"HepG2 cells; HepG2, 24 h",0.0225 µM
same,Apoptosis & necrosis: cell cycle arrest: MEC,"HepG2 cells; HepG2, 24 h",0.0283 µM
same,Inflammation & pH: IL-8: MEC,"HepG2 cells; HepG2, 24 h",0.496 µM
same,Apoptosis & necrosis: caspase 3/7: Effect,HepG2 cells; [3],increase
same,Apoptosis & necrosis: cell cycle arrest: Effect,HepG2 cells; [3],decrease
same,Inflammation & pH: IL-8: Effect,HepG2 cells; [3],increase
same,AC50,"HepG2 cells; Homo sapiens, HepG2, 24 h, read-out: Apoptosis & necrosis: caspase 3/7: AC50",0.798 µM
same,AC50,"HepG2 cells; Homo sapiens, HepG2, 24 h, read-out: Apoptosis & necrosis: cell cycle arrest: AC50",0.056 µM
same,AC50,"HepG2 cells; Homo sapiens, HepG2, 24 h, read-out: Apoptosis & necrosis: cell membrane permeability: AC50",30.8 µM
same,AC50,"HepG2 cells; Homo sapiens, HepG2, 24 h, read-out: Inflammation & pH: IL-8: AC50",> 10 µM
"CC[C@@]1(O)C(=O)OCc2c1cc1n(c2=O)Cc2cc3ccccc3nc2-1 [(S)-(+)-camptothecin, reference compound]",DNA damage: Phospho-p53: MEC,"HepG2 cells; HepG2, 24 h",0.412 µM
same,DNA damage: p-H2AX: MEC,"HepG2 cells; HepG2, 24 h",1.06 µM
same,DNA damage: Phospho-p53: Effect,HepG2 cells; [3],increase
same,DNA damage: p-H2AX: Effect,HepG2 cells; [3],increase
same,AC50,"HepG2 cells; HepG2, 24 h, read-out: DNA damage: Phospho-p53: AC50",1.25 µM
same,AC50,"HepG2 cells; HepG2, 24 h, read-out: DNA damage: p-H2AX: AC50",9.1 µM
"[Cl-].[Na+] [Sodium chloride, reference compound]",Osmotic & heat shock: NFAT: MEC,"HepG2 cells; HepG2, 24 h",1430 µM
same,Osmotic & heat shock: NFAT: Effect,HepG2 cells; [3],increase
same,AC50,"HepG2 cells; HepG2, 24 h, read-out: Osmotic & heat shock: NFAT: AC50",> 80000 µM
"c1ccc2c(c1)cc1ccc3cccc4ccc2c1c34 [Benzo(a)pyrene, reference compound]",AC50,"HepG2 cells; Homo sapiens, HepG2, 24 h, read-out: AhR Translocation: AC50",> 100 µM
same,AhR Translocation: MEC,"HepG2 cells; human, 24 h",0.389 µM
"CC(=O)N(O)CCCCCNC(=O)CCC(=O)N(O)CCCCCNC(=O)CCC(=O)N(O)CCCCCN.CS(=O)(=O)O [Deferoxamine mesylate salt, reference compound]",Inflammation & pH: HIF1α: Effect,HepG2 cells,increase
same,Inflammation & pH: HIF1α: MEC,HepG2 cells,6.2 µM
same,Inflammation & pH: ICAM-1: Effect,HepG2 cells,increase
same,Inflammation & pH: ICAM-1: MEC,HepG2 cells,17.4 µM
same,Inflammation & pH: intracellular pH: Effect,HepG2 cells,increase
same,Inflammation & pH: intracellular pH: MEC,HepG2 cells,6.46 µM
same,AC50,"HepG2 cells; HepG2, 24 h, read-out: Inflammation & pH: HIF1α: AC50",4.31 µM
same,AC50,"HepG2 cells; HepG2, 24 h, read-out: Inflammation & pH: ICAM-1: AC50",> 200 µM
same,AC50,"HepG2 cells; HepG2, 24 h, read-out: Inflammation & pH: intracellular pH: AC50",> 200 µM
"CCCCCC[C@H]1C(=O)O[C@H](C)[C@H](NC(=O)c2cccc(NC=O)c2O)C(=O)O[C@@H](C)[C@@H]1OC(=O)CC(C)C [Antimycin A, reference compound]",Mitochondrial mass: Effect,HepG2 cells; [3],increase
same,AC50,"HepG2 cells; Homo sapiens, HepG2, 24 h, read-out: Mitochondrial mass: AC50",0.245 µM
